One series in a line: method code SF-AS, from PMID: 594121.
Settings: not given
In general, logP refers to the decadic logarithm of the partition coefficient of the neutral form, usually between octanol and water. In turn, `Cc1ccc(NC(=O)CN2CCCCC2)cc1` gave a logP of 2.95.
Same read-out and setting: the result for `O=C(CN1CCCCC1)Nc1cccc(Cl)c1` reads 3.45; that for `O=C(CN1CCCCC1)Nc1cccc(C(F)(F)F)c1`, 3.12.
Still for that read-out and setting: next, `O=C(CN1CCCCC1)Nc1cccc([N+](=O)[O-])c1`: 2.59; `Cc1ccccc1NC(=O)CN1CCCCC1`: 2.26; `O=C(CN1CCCCC1)Nc1ccccc1Cl`: 2.76.
Same read-out and setting: the result for `COc1cccc(NC(=O)CN2CCCCC2)c1` reads 2.71.
Turning to `O=C(CN1CCCCC1)Nc1cccc(F)c1`, the logP was 2.85.
`O=C(CN1CCCCC1)Nc1ccccc1Br`: the logP is 2.94.
The same measure, in the same setting: the result for `CCOc1cccc(NC(=O)CN2CCCCC2)c1` reads 3.17; that for `O=C(CN1CCCCC1)Nc1ccccc1C(F)(F)F`, 3.09; that for `CCOc1ccccc1NC(=O)CN1CCCCC1`, 3.04.
Compound `O=C(CN1CCCCC1)Nc1ccccc1[N+](=O)[O-]` had a logP of 2.75.
Still for that read-out and setting: the result for `O=C(CN1CCCCC1)Nc1ccc(C(F)(F)F)cc1` reads 3.06; that for `O=C(CN1CCCCC1)Nc1ccccc1F`, 2.16.
As to `Cc1cccc(NC(=O)CN2CCCCC2)c1`, the logP amounted to 2.97.
Still for that read-out and setting: next, `COc1ccccc1NC(=O)CN1CCCCC1`: 2.85.
`O=C(CN1CCCCC1)Nc1ccc(F)cc1` had a logP of 2.7.

Staying with this series, now noted: pH 7.4.
Broadly, the logD is the decadic logarithm of the distribution of all forms, ionised or not, between an organic phase and buffer at a given pH. Higher therefore signals a more lipophilic compound. `O=C(CN1CCCCC1)Nc1cccc(I)c1` came in with a logD of 3.23.
As to `O=C(CN1CCCCC1)Nc1cccc(Br)c1`, the log distribution coefficient (logD) was found to be 2.93.
The same measure, in the same setting: the result for `CCOc1ccc(NC(=O)CN2CCCCC2)cc1` reads 2.82.
On the same count and under the same terms, the result for `O=C(CN1CCCCC1)Nc1ccc([N+](=O)[O-])cc1` reads 2.25; that for `O=C(CN1CCCCC1)Nc1ccccc1`, 2.41.
As to `O=C(CN1CCCCC1)Nc1ccc(I)cc1`, the logD came out at 3.21.
Still for that read-out and setting: the result for `O=C(CN1CCCCC1)Nc1ccc(Br)cc1` reads 2.88.

(Values after the SangsterLogP compilation.)
